Holding throughout (test): NCI tumour cell line growth inhibition, 48 h
Assay [1] relates to UACC-62 melanoma.
Assay [2] has as its system CCRF-CEM leukemia.
For assay [3], the system named is SF-539 CNS.
Assay [4] has as its system KM12 colon.
Assay [5] deals with NCI/ADR-RES ovarian.
In assay [6] the test system is HS 578T breast.
Assay [7] deals with SN12C renal.
The subject of assay [8] is COLO 205 colon.
The test system of assay [9] is MALME-3M melanoma.
Assay [10] deals with HOP-92 NSCLC.
Assay [11] has as its system HL-60(TB) leukemia.
Assay [12] relates to SK-OV-3 ovarian.
In assay [13] the test system is OVCAR-5 ovarian.
The subject of assay [14] is UACC-257 melanoma.
Assay [15] deals with SK-MEL-28 melanoma.
Assay [16] concerns EKVX NSCLC.
Assay [17] deals with HOP-62 NSCLC.

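A five-concentration, 48-hour dose response in 96-well plates underlies each endpoint, interpolated linearly between surrounding concentrations. TGI is the concentration that stops growth completely.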

In the case of `O=C1CCCCC[C@]12SC[C@H]1CON=C12`, the TGI in [1] was 71.7 µM; in assay [2], greater than 100 µM; in assay [3], greater than 100 µM; in assay [4], greater than 100 µM; in assay [5], 83.4 µM; in [6], greater than 100 µM. Also, the TGI is 57.6 µM in [7]; greater than 100 µM in [8]; greater than 100 µM in assay [9]; 50.2 µM in [10]; greater than 100 µM in [11]; greater than 100 µM in [12]. The TGI in assay [13], in assay [14], in assay [15] and in assay [16] was greater than 100 µM throughout.
Regarding `Cc1ccc(S(=O)(=O)/N=C(\[O-])C2=C(c3ccccc3)NN(C)c3nc4cccc[n+]4nc32)cc1`, the TGI in assay [1], in [2], in assay [3], in [4], in [5] and in [6] was greater than 100 µM each time. Besides, the TGI in assay [7] was greater than 100 µM; in [8], 53.3 µM; in assay [9], greater than 100 µM; in assay [10], 81.9 µM; in assay [11] it was greater than 100 µM; in assay [13], greater than 100 µM. Moreover, the TGI in [14], in [15] and in [16] was greater than 100 µM each time.
As for `COC(=O)[C@H](Cc1ccccc1)NP(=O)(O)OCC1OC(n2cc(C)c(=O)[nH]c2=O)CC1N=[N+]=[N-]` (stereo not given in full), the TGI in assay [2], in assay [3], in [4], in assay [5], in assay [17] and in assay [6] was greater than 100 µM throughout. The TGI in assay [7], in assay [8], in [9], in [10], in assay [11] and in [12] was greater than 100 µM in each case. Moreover, the TGI in assay [13], in assay [14], in [15] and in [16] was greater than 100 µM in each case.
With `CC1(C)N=C(/C=N/O)C(C)(C)N1O`, the TGI in [1], in assay [2], in assay [3], in [4], in assay [5] and in [17] was greater than 100 µM in each case. For the same compound, the TGI in assay [6], in [7], in assay [8], in assay [9], in assay [10] and in assay [11] was greater than 100 µM each time. Besides, the TGI in assay [12], in assay [13], in assay [15] and in assay [16] was greater than 100 µM each time.
Take `O=CC1OC(=O)c2cc(O)c(O)c(O)c2-c2c(cc(O)c(O)c2O)C(=O)OC1C(O)C(O)CO` (stereo not given): the TGI is 85.5 µM in assay [2]; greater than 100 µM in [3]; greater than 100 µM in assay [4]; greater than 100 µM in [5]; greater than 100 µM in assay [17]; greater than 100 µM in assay [6]. Moreover, the TGI in assay [7], in assay [8], in [9], in [10], in assay [11] and in assay [13] was greater than 100 µM in each case. Besides, the TGI in [14], in [15] and in [16] was greater than 100 µM each time.
For the compound `CCOC(=O)/C=C(\N=P(c1ccccc1)(c1ccccc1)c1ccccc1)C(F)(F)C(F)(F)C(F)(F)C(F)(F)C(F)(F)F`, the TGI in [1], in assay [2], in [3], in [4], in [5] and in [17] was greater than 100 µM throughout. Further, the TGI in assay [6], in [7], in assay [8], in [9], in assay [10] and in assay [11] was greater than 100 µM in each case. Besides, the TGI in assay [12], in assay [13], in [14] and in [15] was greater than 100 µM throughout.
For `O=C(CN1CCOCC1)CC(O)(C(F)(F)F)C(F)(F)F`, the TGI in assay [1], in assay [2], in [3], in assay [4], in assay [5] and in assay [6] was greater than 100 µM each time. The TGI in assay [8] was greater than 100 µM; in assay [9], greater than 100 µM; in [10], 97.2 µM; in [11], greater than 100 µM; in assay [12], greater than 100 µM; in assay [13], greater than 100 µM. Also, the TGI in [14], in assay [15] and in [16] was greater than 100 µM in each case.
With `NC12CC3CC4C1CC1CC2C(C3)C4(N)C1`, the TGI in assay [1], in assay [2], in assay [4], in assay [5], in [17] and in assay [6] was greater than 100 µM in each case. The TGI in assay [7], in [8], in [9], in assay [10], in [11] and in [12] was greater than 100 µM each time. In addition, the TGI in assay [13], in [14], in assay [15] and in assay [16] was greater than 100 µM each time.
